± gives the expanded uncertainty stated by the source.
Settings: Liquid, Ebulliometric method (Recirculating still)

vapor or sublimation pressure (449.39 K) [kPa]	vapor or sublimation pressure (428.65 K) [kPa]	Structure (SMILES)
100.7 ± 0.6		Cc1ccc(C(C)C)cc1 [1-(1-methylethyl)-4-methylbenzene]
	100.7 ± 1.1	CC1=CCC2CC1C2(C)C (configuration not stated) [2-pinene]

From the NIST ThermoML archive (doi:10.1016/j.jct.2012.10.017)
